Legend:
EGFR [1] = molecular target: T1, EGFR (Homo sapiens (Human), UniProt P00533); assay: A549 cell lysis and immunoassay, phospho-EGFR (Y1068) inhibition; assay type: cell-based; parameters: key: X: EGFR bound and autophosphoration of EGFR inhibited in cells; conditions: A549 cells
Method: (§1) A549 cells (ATCC) were cultured in Dulbecco's Modified Eagle's Medium (DMEM) (Wisent) supplemented with 10% FBS and 1% penicillin/streptomycin. Cells were seeded in 6-well plates at 530,000 cells/well and incubated at 37° C., 5% CO2 for 16 hours. Cells were starved in DMEM containing 1% FBS for 4 hours before they were treated with the indicated concentrations of compound or DMSO alone and incubated at 37° C., 5% CO2 for 24 hours. Prior to cell harvest and lysis, 50 ng/ml human epidermal growth factor (hEGF) (Sigma) was added to the cells and incubated at 37° C., 5% CO2 for 10 minutes. Conditioned media was discarded, and adherent cells were washed with PBS before they were scraped on ice. Cell suspensions were centrifugated at 2,000 RPM for 5 minutes at 4° C. and supernatants were discarded. Cell pellets were resuspended with 1× RIPA buffer (Millipore) and incubated on ice for 15 minutes. Protein lysates were extracted by centrifugating at 20,000 RPM for 20 minutes at 4° C. Proteins were separated and total EGFR protein levels were quantified by Simple Western Immunoassay (ProteinSimple) using the Protein Normalization Assay Module for Jess according to the manufacturer's protocol, using a protein concentration of 0.125 μg/μl and an antibody targeting EGFR (clone #EP38Y, Abcam) diluted to 1:400. Phosphorylated EGFR protein levels were quantified with the same assay using a protein concentration of 1 μg/μl and an antibody targeting pEGFR (Y1068) (Cell Signalling) diluted to 1:25. EGFR and phosphorylated EGFR levels were normalized to the Jess Protein Normalization Reagent loading control and subsequently to the DMSO control.

BTK [2] = molecular target: T2, BTK (Homo sapiens (Human), UniProt Q06187); assay: Ramos RA1 cell lysis and immunoassay, total BTK degradation; assay type: cell-based; parameters: key to % BTK degradation (RAMOS, 24 h): Y: BTK bound in cells and BTK degradation occurred; concentration or dose not given beside the values; key to % BTK degradation (RAMOS, 10 uM, 24 h): Y: EGFR bound in cells and EGFR degradation occurred; conditions: RAMOS cells
Method: Ramos RA 1 cells (ATCC) were cultured in RPMI-1640 media (Wisent) supplemented with 10% heat-inactivated FBS and 1% penicillin/streptomycin. Cells were seeded in 6-well plates at 1.71×10^6 cells/well and incubated at 37° C., 5% CO2 for 16 hours. Cells were treated with compound at the indicated concentrations or DMSO alone and incubated at 37° C., 5% CO2 for 24 hours. Cell suspensions were centrifugated at 1,400-1,600 RPM for 5 minutes at room temperature and supernatants were discarded. Cell pellets were resuspended with 1× RIPA buffer (Millipore) and incubated on ice for 15 minutes. Protein lysates were extracted by centrifugating at 20,000 RPM for 20 minutes at 4° C. Proteins were separated and total BTK protein levels were quantified by Simple Western Immunoassay (ProteinSimple) using the 12-230 kDa Jess Separation Module according to the manufacturer's protocol, using a protein concentration of 0.25 μg/μl and antibodies targeting BTK (clone #D3H5, Cell Signalling) and β-Actin (clone #AC-15, Santa Cruz) diluted to 1:400 and 1:10, respectively, where the latter was used as a loading control. An equal ratio of rabbit and mouse HRP-conjugated secondary antibodies was used for detection. BTK protein levels were quantified relative to S-Actin loading levels and subsequently normalized to the DMSO control. Phosphorylated BTK levels were quantified using the Protein Normalization Assay Module for Jess (ProteinSimple) according to the manufacturer's protocol, using a protein concentration of 1.5 μg/μl and an antibody targeting pBTK (Y223) (Cell Signalling) diluted to 1:50. Phosphorylated BTK levels were quantified relative to the Protein Normalization Reagent and subsequently normalized to the DMSO control.

EGFR [3] = molecular target: T1, EGFR; assay: A549 cell lysis and immunoassay, total EGFR degradation; assay type: cell-based; parameters: key: Y: EGFR bound in cells and EGFR degradation occurred; conditions: A549 cells
Method: as §1

BTK [4] = molecular target: T2, BTK; assay: Time-dependent inhibition of BTK (HTRF); assay type: biochemical; conditions: pre-incubation 0-45 min; for Time-dependent inhibition of BTK: product formation versus pre-incubation time: mono-exponential decay fit
Method: For the time-dependent inhibition experiments, the activity of BTK kinases was monitored using a HTRF® KinEASE-TK kit from Cisbio (62TK0PEC) as described above. […] The pre incubation times were 0, 1, 3, 5, 10, 15, 30 and 45 min. After the preincubation, reaction was initiated by adding biotinylated substrate and ATP and the reaction was allowed to proceed for 45 min. […] After 60 min of incubation, the fluorescence emission was measured at 620 nm and 665 nm. The ratio of Em 665 nm to Em 620 nm was proportional to the amount of substrate phosphorylated by the kinase. Product formation vs pre-incubation time data were fitted to a one phase exponential decay equation using GraphPad Prism. The same product formation vs inhibitor concentration data were also fitted to a log(antagonist) vs. response—Variable slope equation in GraphPad Prism to provide IC50 values at different pre incubation times.

EGFR [5] = molecular target: T1, EGFR; assay: Jump dilution experiment, EGFR; assay type: biochemical; conditions: 1.5-h incubation, 46 nM EGFR, 10×IC50 compound, 100-fold dilution
Method: Six compounds (used at 10 times their IC50 concentrations) were pre incubated with EGFR (at 46 nM or 100-fold the normal assay concentration) for 1.5 h at room temperature. Sample containing only DMSO vehicle was used as a positive (full activity) control while sample with no enzyme was used as a negative (zero activity) control. After the preincubation, the mixture was diluted 100-fold into a reaction mixture containing 0.5 uM biotinylated substrate and 1.57 uM ATP and the reaction was allowed to proceed for various time points (2, 5, 10, 15, 30, 40, 45 and 60 min), at which the reaction was terminated by adding 1 ul of 0.5 M EDTA. 31.25 nM SA-XL665 and 100-fold diluted europium labelled antibody (Eu-Ab), diluted in 1× detection buffer, was added as detection mixture. After 60 min of incubation, the fluorescence emission was measured at 620 nm and 665 nm. The ratio of Em 665 nm to Em 620 nm was proportional to the amount of substrate phosphorylated by the kinase.

[6] = compound concentration 10, 24 h

T2 sequence (Q06187 whole entry): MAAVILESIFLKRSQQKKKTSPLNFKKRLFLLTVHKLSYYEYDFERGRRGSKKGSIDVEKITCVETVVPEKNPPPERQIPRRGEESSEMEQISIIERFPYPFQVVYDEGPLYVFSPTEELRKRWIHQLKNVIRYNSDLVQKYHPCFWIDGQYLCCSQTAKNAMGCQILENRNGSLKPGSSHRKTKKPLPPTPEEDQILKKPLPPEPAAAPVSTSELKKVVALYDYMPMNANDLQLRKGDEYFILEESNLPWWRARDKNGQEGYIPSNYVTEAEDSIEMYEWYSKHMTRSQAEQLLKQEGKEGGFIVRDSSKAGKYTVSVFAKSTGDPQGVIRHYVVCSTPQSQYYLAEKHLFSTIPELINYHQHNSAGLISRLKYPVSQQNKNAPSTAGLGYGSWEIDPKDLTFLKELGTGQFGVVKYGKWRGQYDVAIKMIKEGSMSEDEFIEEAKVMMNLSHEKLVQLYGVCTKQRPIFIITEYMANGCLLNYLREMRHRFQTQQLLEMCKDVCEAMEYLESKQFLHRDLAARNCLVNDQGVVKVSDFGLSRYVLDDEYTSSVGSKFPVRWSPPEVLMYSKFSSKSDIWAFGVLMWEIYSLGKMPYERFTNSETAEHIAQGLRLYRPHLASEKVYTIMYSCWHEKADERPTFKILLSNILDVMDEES
T1 sequence (P00533 25-1210): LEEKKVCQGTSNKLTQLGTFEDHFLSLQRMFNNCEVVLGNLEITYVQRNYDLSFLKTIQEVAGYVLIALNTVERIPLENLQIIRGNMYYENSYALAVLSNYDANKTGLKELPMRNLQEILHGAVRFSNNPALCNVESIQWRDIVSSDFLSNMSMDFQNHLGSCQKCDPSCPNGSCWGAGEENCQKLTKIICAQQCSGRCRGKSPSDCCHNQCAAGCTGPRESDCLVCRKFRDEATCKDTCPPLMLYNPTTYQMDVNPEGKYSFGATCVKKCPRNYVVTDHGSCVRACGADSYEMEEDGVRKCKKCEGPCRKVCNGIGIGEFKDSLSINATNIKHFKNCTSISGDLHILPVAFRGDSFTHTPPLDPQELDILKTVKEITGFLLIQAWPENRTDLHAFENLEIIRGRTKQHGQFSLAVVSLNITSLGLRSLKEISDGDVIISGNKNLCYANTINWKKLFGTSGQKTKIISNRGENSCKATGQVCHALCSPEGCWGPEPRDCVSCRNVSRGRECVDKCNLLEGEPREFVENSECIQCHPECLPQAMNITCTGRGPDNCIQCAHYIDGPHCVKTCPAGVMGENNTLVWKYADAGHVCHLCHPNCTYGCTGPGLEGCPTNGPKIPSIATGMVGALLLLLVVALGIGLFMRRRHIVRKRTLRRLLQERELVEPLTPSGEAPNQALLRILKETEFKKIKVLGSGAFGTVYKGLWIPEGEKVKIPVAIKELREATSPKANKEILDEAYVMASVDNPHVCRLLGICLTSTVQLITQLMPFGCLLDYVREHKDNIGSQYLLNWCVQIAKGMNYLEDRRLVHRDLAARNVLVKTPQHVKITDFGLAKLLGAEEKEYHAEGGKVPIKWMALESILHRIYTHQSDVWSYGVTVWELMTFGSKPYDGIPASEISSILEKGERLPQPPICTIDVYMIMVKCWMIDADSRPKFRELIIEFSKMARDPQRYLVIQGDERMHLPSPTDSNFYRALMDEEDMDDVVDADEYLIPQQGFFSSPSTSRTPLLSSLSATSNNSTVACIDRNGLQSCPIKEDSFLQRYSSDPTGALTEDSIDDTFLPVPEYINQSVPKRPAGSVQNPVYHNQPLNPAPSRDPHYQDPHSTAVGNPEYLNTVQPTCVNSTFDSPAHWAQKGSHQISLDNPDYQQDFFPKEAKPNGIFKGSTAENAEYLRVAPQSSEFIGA

Structure (SMILES) | pEGFR inhibition (A549, 1 μM, 24 h) (EGFR [1]) | % BTK degradation (RAMOS, 24 h) (BTK [2]) | EGFR degradation (A549, 1 μM, 24 h) (EGFR [3]) | EGFR degradation (A549, compound concentration, 24 h) (EGFR [3]; [6]) | Time-dependent inhibition of BTK: product formation versus pre-incubation time (BTK [4]) | Time-dependent inhibition of BTK: IC50 values versus pre-incubation time (BTK [4]) | pEGFR inhibition (A549, compound concentration, 24 h) (EGFR [1]; compound concentration 10 μM) | % BTK degradation (RAMOS, 10 uM, 24 h) (BTK [2]; 10 uM) | residual activity of EGFR after jump dilution, relative to enzyme incubated with DMSO alone (EGFR [5]) | pEGFR inhibition (A549, compound concentration, 24 h) (EGFR [1]; compound concentration 5 μM) | EGFR degradation (A549, compound concentration, 24 h) (EGFR [3]; compound concentration 5, 24 h)
CS(=O)(=O)c1c(F)c(F)c(F)c(F)c1C(=O)NCCn1nc(-c2ccc(Oc3ccccc3)cc2)c2c(N)ncnc21 [Compound I-38, N-(2-(4-amino-3-(4-phenoxyphenyl)-1H-pyrazolo[3,4-d]pyrimidin-1-yl)ethyl)-2,3,4,5-tetrafluoro-6-(methylsulfonyl)benzamide] | X | Y | Y | Y | concentration-dependent first order loss of enzyme activity | decrease as pre-incubation times increase |  |  |  |  | 
Nc1ncnc2c1c(-c1ccc(Oc3ccccc3)cc1)nn2CCCNC(=O)c1c(F)c(F)c(F)c(F)c1S(N)(=O)=O [Compound I-34, N-(3-(4-amino-3-(4-phenoxyphenyl)-1H-pyrazolo[3,4-d]pyrimidin-1-yl)propyl)-2,3,4,5-tetrafluoro-6-sulfamoylbenzamide] | X | Y | Y | Y | concentration-dependent first order loss of enzyme activity | decrease as pre-incubation times increase |  |  |  |  | 
C[S+]([O-])c1c(F)c(F)c(F)c(F)c1Nc1cc2c(Nc3ccc(F)c(Cl)c3)ncnc2cc1O[C@H]1CCOC1 (stereo partly drawn) [Compound I-4, N^4-(3-chloro-4-fluorophenyl)-N^6-(2,3,4,5-tetrafluoro-6-(methylsulfinyl)phenyl)-7-(((S)-tetrahydrofuran-3-yl)oxy)quinazoline-4,6-diamine] | X | Y | Y | Y |  |  | X | Y | less than 20% |  | 
CS(=O)(=O)c1c(F)c(F)c(F)c(F)c1Nc1cc2c(Nc3ccc(F)c(Cl)c3)ncnc2cc1O[C@H]1CCOC1 [Compound I-2, (S)—N^4-(3-chloro-4-fluorophenyl)-N^6-(2,3,4,5-tetrafluoro-6-(methylsulfonyl)phenyl)-7-((tetrahydrofuran-3-yl)oxy)quinazoline-4,6-diamine] | X | Y | Y | Y |  |  | X |  | less than 20% |  | 
CN(C)S(=O)(=O)c1c(F)c(F)c(F)c(F)c1C(=O)NCCn1nc(-c2ccc(Oc3ccccc3)cc2)c2c(N)ncnc21 [Compound I-40, N-(2-(4-amino-3-(4-phenoxyphenyl)-1H-pyrazolo[3,4-d]pyrimidin-1-yl)ethyl)-2-(N,N-dimethylsulfamoyl)-3,4,5,6-tetrafluorobenzamide] | X | Y |  |  | concentration-dependent first order loss of enzyme activity | decrease as pre-incubation times increase |  |  |  | X | Y
C[S+]([O-])c1c(F)c(F)c(F)c(F)c1C(=O)Nc1cc2c(Nc3ccc(F)c(Cl)c3)ncnc2cc1OC1CCOC1 (centres unmarked) [Compound I-3] | X | Y |  | Y |  |  | X |  | less than 20% |  | 
C[S@+]([O-])c1c(F)c(F)c(F)c(F)c1C(=O)N1CC(n2nc(-c3ccc(Oc4ccccc4)cc3)c3c(N)ncnc32)C1 (racemic) [Compound I-37, (3-(4-amino-3-(4-phenoxyphenyl)-1H-pyrazolo[3,4-d]pyrimidin-1-yl)azetidin-1-yl)(2,3,4,5-tetrafluoro-6-(methylsulfinyl)phenyl)methanone] | X | Y | Y | Y | concentration-dependent first order loss of enzyme activity | decrease as pre-incubation times increase | X |  |  |  | 
CN(CCn1nc(-c2ccc(Oc3ccccc3)cc2)c2c(N)ncnc21)C(=O)c1c(F)c(F)c(F)c(F)c1S(N)(=O)=O [Compound I-33, N-(2-(4-amino-3-(4-phenoxyphenyl)-1H-pyrazolo[3,4-d]pyrimidin-1-yl)ethyl)-2,3,4,5-tetrafluoro-N-methyl-6-sulfamoylbenzamide] | X | Y | Y | Y | concentration-dependent first order loss of enzyme activity | decrease as pre-incubation times increase | X |  |  |  | 

Source: patent US20240018153A1, “BENZENESULFONAMIDE DERIVATIVES AND USES THEREOF” (2692372 ONTARIO, INC., priority 2020, published 2024)
